# Laboratory results: patent US20240024273A1, “TOPICAL ADMINISTRATION OF 2-(DIETHYLAMINO)ETHYL 2-(4-ISOBUTYLPHENYL)PROPRIONATE FOR TREATMENT OF DISEASES” (TECHFIELDS PHARMA CO., LTD., priority 2020, published 2024)
# System: Mild to Moderate Osteoarthritis of the Knee
# Test: Phase 2 study: WOMAC difficulty performing daily activities subscale score
# Format: in vivo, human
# Details: for Change of WOMAC Difficulty performing daily activities score from baseline (±SEM) / Percentage of improvement from baseline, WOMAC Difficulty performing daily activities score: all patients taken as active; for WOMAC Difficulty Performing Daily Activities Subscale Score, Avg.: Avg. of all patients; for WOMAC Difficulty Performing Daily Activities Subscale Score, Avg. / WOMAC Difficulty Performing Daily Activities Subscale Score: blinded; for WOMAC Difficulty Performing Daily Activities Subscale Score: individual patient
# Excerpt: This is a Phase 2, multicenter, randomized, double blind (within dose), placebo controlled, parallel group, proof of concept, and dose range finding study to evaluate the efficacy, safety, and PK of 2-(diethylamino)ethyl 2-(4-isobutylphenyl)propionate hydrochloride spray in adult subjects with clinically symptomatic mild to moderate OA of the knee. For subjects with bilateral knee pain, both knees will be treated, but the most symptomatic knee (i.e., the most painful knee as measured by the Western Ontario and McMaster University Osteoarthritis Index [WOMAC® 3.1] pain subscale score at Screening) will be designated as the target knee for efficacy analyses. For subjects with unilateral knee pain, only the symptomatic (target) knee will be treated.
# After a Screening Period of up to 3 weeks and radiographic evaluation of the target knee joint space, a subject will be randomly assigned to 1 of 3 treatment groups in a 1:1:1 ratio with a 2:1 ratio of active:placebo within each treatment group (ie, 2 subjects to active treatment and 1 subject to placebo): • Group A: 8.75 mg 2-(diethylamino)ethyl 2-(4-isobutylphenyl)propionate/knee (2 sprays/knee, one spray to the medial surface and one spray to the lateral surface of the knee), twice daily (BID, approximately every 12 hours; n=50) or placebo (2 sprays/knee), BID (approximately every 12 hours; n=25) for a total of 4 sprays per knee per day; • Group B: 17.5 mg 2-(diethylamino)ethyl 2-(4-isobutylphenyl)propionate/knee (4 sprays/knee, one spray to the medial surface and one spray to the lateral surface of the knee, and one spray to front and one spray to the back of the knee), BID (approximately every 12 hours; n=50) or placebo (4 sprays/knee), BID (approximately every 12 hours; n=25) for a total of 8 sprays per knee per day; • Group C: 35 mg 2-(diethylamino)ethyl 2-(4-isobutylphenyl)propionate/knee (8 sprays/knee, each spray is to be applied to a different non-overlapping area around the knee, and the areas are to be uniformly distributed around the knee), BID (approximately every 12 hours; n=50) or placebo (8 sprays/knee), BID (approximately every 12 hours; n=25) for a total of 16 sprays per knee per day.
# The VAS version of the WOMAC will be used for the Primary and Secondary Efficacy Endpoints. Efficacy endpoints will be assessed at Screening and Baseline (Day 1) and at the Week 2, Week 4, Week 8, and Week 12/EOS visits.
# 3.9.2. Secondary Efficacy Endpoints: • 1. Change from Baseline in the WOMAC (VAS) pain subscale score for the target knee at 2, 4, and 8 weeks of treatment; • 2. Change from Baseline in the WOMAC (VAS) stiffness subscale scores for the target knee and WOMAC (VAS) functional ability subscale scores at 2, 4, 8, and 12 weeks of treatment; • 3. Change from Baseline in the overall WOMAC (VAS) score at 2, 4, 8, and 12 weeks of treatment.
# The Secondary Efficacy Endpoints, change from Baseline in the WOMAC subscale scores for pain, stiffness, and functional ability, and overall WOMAC score at 2, 4, 8, and 12 weeks of treatment, will be analyzed using the same methods as for the Primary Efficacy Endpoint.
# To determine this, we assumed that all patients received 2-(diethylamino)ethyl 2-(4-isobutylphenyl)propionate, active drug treatment (i.e. all patients who received 2-(diethylamino)ethyl 2-(4-isobutylphenyl)propionate or placebo treatment for 12 weeks or mixed up treatment during the 12-week treatment, as 2-(diethylamino)ethyl 2-(4-isobutylphenyl)propionate-treated). Based on this assumption, that is, to treat this trial as an open-label study and that all patients received active treatment, we conducted efficacy analysis using top-line efficacy datasets prepared by CRO and the re-analysis results are presented in the following tables (Tables 29-47). […] (William G. Bensen, Justus J. Fiechtner, James 1. McMillen, et. al. Treatment of Osteoarthritis with Celecoxib. Mayo Clin Proc, November 1999. Vol 74, 1095-1105.)
# [1] = 35 mg/knee (BID), Week 8 (day 56)
# [2] = 35 mg/knee (BID), Week 12 (day 84)
# [3] = Middle Dose (4 spray/knee, 17.5 mg/knee) Cohort, Day 1
# [4] = Middle Dose (4 spray/knee, 17.5 mg/knee) Cohort, Week 4
smiles,measurement,setting,value
CCN(CC)CCOC(=O)C(C)c1ccc(CC(C)C)cc1 (stereo not shown) [2-(diethylamino)ethyl 2-(4-isobutylphenyl)propionate],"Percentage of improvement from baseline, WOMAC Difficulty performing daily activities score, adjusted by […] of the Testing Drug Amount",[1],−55.1%
same,Change of WOMAC Difficulty performing daily activities score from baseline (±SEM),[1],−18.4(±2.6) mm
same,"Percentage of improvement from baseline, WOMAC Difficulty performing daily activities score",[1],−32.1%
same,"Change of WOMAC Difficulty performing daily activities score from baseline (±SEM), adjusted by […] of the Testing Drug Amount",[2],−35.8(±4.8) mm
same,"Percentage of improvement from baseline, WOMAC Difficulty performing daily activities score, adjusted by […] of the Testing Drug Amount",[2],−62.4%
same,Change of WOMAC Difficulty performing daily activities score from baseline (±SEM),[2],−20.9(±2.8) mm
same,"Percentage of improvement from baseline, WOMAC Difficulty performing daily activities score",[2],−36.4%
same,reduction of difficulty performing daily activities WOMAC from baseline to week 12,5 patients on second batch active drug kits,65.1-100%
same,"WOMAC Difficulty Performing Daily Activities Subscale Score, Avg.","35 mg/knee (8 spray/knee), Day 1",57.4
same,"WOMAC Difficulty Performing Daily Activities Subscale Score, Avg.","35 mg/knee (8 spray/knee), Follow-up",37.0
same,"WOMAC Difficulty Performing Daily Activities Subscale Score, Avg.","35 mg/knee (8 spray/knee), Week 2",48.0
same,"WOMAC Difficulty Performing Daily Activities Subscale Score, Avg.","35 mg/knee (8 spray/knee), Week 4",44.0
same,"WOMAC Difficulty Performing Daily Activities Subscale Score, Avg.","35 mg/knee (8 spray/knee), Week 8",39.0
same,"WOMAC Difficulty Performing Daily Activities Subscale Score, Avg.","35 mg/knee (8 spray/knee), Week 12",36.5
same,"WOMAC Difficulty Performing Daily Activities Subscale Score, Avg.",[3],63.4
same,"WOMAC Difficulty Performing Daily Activities Subscale Score, Avg.","Middle Dose (4 spray/knee, 17.5 mg/knee) Cohort, Follow-up",40.3
same,"WOMAC Difficulty Performing Daily Activities Subscale Score, Avg.","Middle Dose (4 spray/knee, 17.5 mg/knee) Cohort, Week 2",48.1
same,"WOMAC Difficulty Performing Daily Activities Subscale Score, Avg.",[4],42.3
same,"WOMAC Difficulty Performing Daily Activities Subscale Score, Avg.","Middle Dose (4 spray/knee, 17.5 mg/knee) Cohort, Week 8",39.3
same,"WOMAC Difficulty Performing Daily Activities Subscale Score, Avg.","Middle Dose (4 spray/knee, 17.5 mg/knee) Cohort, Week 12",36.5
same,"WOMAC Difficulty Performing Daily Activities Subscale, WOMAC VAS Score","Patient 1056, second batch active drug kits, Day 1",39.6 mm
same,"WOMAC Difficulty Performing Daily Activities Subscale, WOMAC VAS Score","Patient 1056, second batch active drug kits, Follow Up",11.6 mm
same,"WOMAC Difficulty Performing Daily Activities Subscale, WOMAC VAS Score","Patient 1056, second batch active drug kits, Week 2",27.1 mm
same,"WOMAC Difficulty Performing Daily Activities Subscale, WOMAC VAS Score","Patient 1056, second batch active drug kits, Week 4",24.4 mm
same,"WOMAC Difficulty Performing Daily Activities Subscale, WOMAC VAS Score","Patient 1056, second batch active drug kits, Week 8",25.2 mm
same,"WOMAC Difficulty Performing Daily Activities Subscale, WOMAC VAS Score","Patient 1056, second batch active drug kits, Week 12",18.1 mm
same,"WOMAC Difficulty Performing Daily Activities Subscale, WOMAC VAS Score","Patient 1064, second batch active drug kits, Day 1",33.6 mm
same,"WOMAC Difficulty Performing Daily Activities Subscale, WOMAC VAS Score","Patient 1064, second batch active drug kits, Follow Up",0.4 mm
same,"WOMAC Difficulty Performing Daily Activities Subscale, WOMAC VAS Score","Patient 1064, second batch active drug kits, Week 2",24.4 mm
same,"WOMAC Difficulty Performing Daily Activities Subscale, WOMAC VAS Score","Patient 1064, second batch active drug kits, Week 4",1.1 mm
same,"WOMAC Difficulty Performing Daily Activities Subscale, WOMAC VAS Score","Patient 1064, second batch active drug kits, Week 8",0.5 mm
same,"WOMAC Difficulty Performing Daily Activities Subscale, WOMAC VAS Score","Patient 1064, second batch active drug kits, Week 12",0.6 mm
same,"WOMAC Difficulty Performing Daily Activities Subscale, WOMAC VAS Score","Patient 1535, second batch active drug kits, Day 1",51.6 mm
same,"WOMAC Difficulty Performing Daily Activities Subscale, WOMAC VAS Score","Patient 1535, second batch active drug kits, Follow Up",0.2 mm
same,"WOMAC Difficulty Performing Daily Activities Subscale, WOMAC VAS Score","Patient 1535, second batch active drug kits, Week 2",3.3 mm
same,"WOMAC Difficulty Performing Daily Activities Subscale, WOMAC VAS Score","Patient 1535, second batch active drug kits, Week 4",2.8 mm
same,"WOMAC Difficulty Performing Daily Activities Subscale, WOMAC VAS Score","Patient 1535, second batch active drug kits, Week 8",3.5 mm
same,"WOMAC Difficulty Performing Daily Activities Subscale, WOMAC VAS Score","Patient 1535, second batch active drug kits, Week 12",0.2 mm
same,"WOMAC Difficulty Performing Daily Activities Subscale, WOMAC VAS Score","Patient 1539, second batch active drug kits, Day 1",73.0 mm
same,"WOMAC Difficulty Performing Daily Activities Subscale, WOMAC VAS Score","Patient 1539, second batch active drug kits, Follow Up",4.4 mm
same,"WOMAC Difficulty Performing Daily Activities Subscale, WOMAC VAS Score","Patient 1539, second batch active drug kits, Week 2",47.8 mm
same,"WOMAC Difficulty Performing Daily Activities Subscale, WOMAC VAS Score","Patient 1539, second batch active drug kits, Week 4",43 mm
same,"WOMAC Difficulty Performing Daily Activities Subscale, WOMAC VAS Score","Patient 1539, second batch active drug kits, Week 8",5.5 mm
same,"WOMAC Difficulty Performing Daily Activities Subscale, WOMAC VAS Score","Patient 1539, second batch active drug kits, Week 12",8.4 mm
same,"WOMAC Difficulty Performing Daily Activities Subscale, WOMAC VAS Score","Patient 9032, second batch active drug kits, Day 1",16.4 mm
same,"WOMAC Difficulty Performing Daily Activities Subscale, WOMAC VAS Score","Patient 9032, second batch active drug kits, Follow Up",2.8 mm
same,"WOMAC Difficulty Performing Daily Activities Subscale, WOMAC VAS Score","Patient 9032, second batch active drug kits, Week 2",6.0 mm
same,"WOMAC Difficulty Performing Daily Activities Subscale, WOMAC VAS Score","Patient 9032, second batch active drug kits, Week 4",7.1 mm
same,"WOMAC Difficulty Performing Daily Activities Subscale, WOMAC VAS Score","Patient 9032, second batch active drug kits, Week 8",3.4 mm
same,"WOMAC Difficulty Performing Daily Activities Subscale, WOMAC VAS Score","Patient 9032, second batch active drug kits, Week 12",2.5 mm
same,WOMAC Difficulty Performing Daily Activities Subscale Score,[3],64.5
same,WOMAC Difficulty Performing Daily Activities Subscale Score,[4],66.8
